In series [1] the target is serotonin receptor 5-HT2A (Homo sapiens, UniProt P28223). Put plainly: NIH-PDSP binding assay, 5-HT2A (3H-ketanserin). The note with it: for mean % inhibition 5-HT2A: Table 4, N=4 determinations, significant inhibition >50%, negative = stimulation of binding. The text has this: (§1) Biological Evaluation of selected compounds was done through the National Institutes of Health Psychoactive Drug Screening Program (NIH-PDSP). Biological evaluation of the synthesized molecules consisted of: (a) Neurotransmitter uptake assays for the human serotonin transporter (SERT), (b) Binding assays for the serotonin receptor 5-HT1A, (c) Binding assays for the serotonin receptor 5-HT2A, and (d) Comparison of the biological data obtained for the synthesized molecules with that of currently used psychotherapeutics.
(§2) All binding assays were carried out with an incubation time of 60 minutes at room temperature. All binding assays were performed in a similar manner, although the buffers used differ from assay to assay.
(§3) Table 2 below gives the (1) radioligand; (2) assay buffer; (3) unlabelled reference ligand; and (4) references to the commonly-known procedures which were used.
(§4) The assay buffer A was made up of 50 mM Tris-Cl, 0.1 mM EDTA, and 10 mM MgCl2, at a pH of 7.4. To perform the assay, a 96-well plate was set up as follows:
(§5) For the 3H-ligands 1-2 nM final concentration of radioligand was used. For 125I-radioligands, 0.05-0.1 nM final concentration was used. The following components were pipetted in the following order: binding buffer, radioligand, cold unknown ligand, cold reference ligand, and membranes. The wells were incubated at room temperature for 60 minutes. At the end of the incubation, the samples were harvested onto pre-soaked (0.3% polyethyleneimine) GF/C filters using a 96-well harvester. They were then washed with 3 quick washes using ice-cold harvest buffer. The filters were removed and air dried overnight. Samples were counted in a 96-well counter using 100 μl of scintillant/well. The Ki value of the reference compound was calculated using the LIGAND Program (Munson and Rodbard, 1980). The percent inhibition was calculated using the following formula: […]

Series [2] addresses T1, serotonin receptor 5-HT1A (Homo sapiens, UniProt P08908).
T1 sequence (P08908 1-422): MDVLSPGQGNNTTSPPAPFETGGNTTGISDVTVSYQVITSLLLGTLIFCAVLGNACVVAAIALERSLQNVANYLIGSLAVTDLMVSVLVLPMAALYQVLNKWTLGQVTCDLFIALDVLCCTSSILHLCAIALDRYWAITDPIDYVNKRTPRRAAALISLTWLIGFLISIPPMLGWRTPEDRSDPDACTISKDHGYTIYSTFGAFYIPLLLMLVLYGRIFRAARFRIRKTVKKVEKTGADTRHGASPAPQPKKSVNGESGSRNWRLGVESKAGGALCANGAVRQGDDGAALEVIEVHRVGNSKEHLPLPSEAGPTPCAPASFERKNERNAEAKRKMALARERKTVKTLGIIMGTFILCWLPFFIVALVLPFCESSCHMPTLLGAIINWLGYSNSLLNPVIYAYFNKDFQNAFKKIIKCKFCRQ
Put plainly: NIH-PDSP binding assay, 5-HT1A (3H-8-OH-DPAT). Particulars: for mean % inhibition 5-HT1A: Table 4, N=4 determinations, significant inhibition >50%, negative = stimulation of binding.
From the text: as §1, §2, §3, §4, §5

Series [3] has as its target human serotonin transporter (SERT) (Homo sapiens, UniProt P31645). Put plainly: NIH-PDSP transporter binding assay, SERT (3H-Citalopram). The note with it: for mean % inhibition SERT: Table 4, N=4 determinations, significant inhibition >50%, negative = stimulation of binding; for affinity for SERT: in words, compounds 1b through 7b of Tables 4 and 5.
From the text: as §1, §2
The assay buffer H contained 50 mM Tris-HCl, […], and 5 mM KCl, at a pH of 7.4. For the peptide receptor binding assay, filters were pre-soaked for 7 days in 0.3% PEI. To perform the assay, a 96-well plate was set up as follows:
as §5

The next series relates to 5HT1A, 5HT2A, SERT. As to the kind of experiment: Preliminary Analysis of Biological Data (NIH-PDSP binding profile). Particulars: in words; compounds 1b through 7b of Tables 4 and 5.
From the text: as §1
Ten (10) of the sixteen (16) compounds synthesized were biologically evaluated. Compounds 10b, 11b and 12b were previously evaluated for their serotonin uptake ability as described in Example 5. For screening purposes, compounds 1b through 7b were analyzed for their affinity towards the serotonin 5-HT1A receptor as well as their affinity towards the 5-HT2A receptor and the SERT. Data in […] represent mean % inhibition (N=4 determinations) for compound tested at receptor subtypes. Significant inhibition is considered >50%. In cases where negative inhibition (−) is seen, this represents a stimulation of binding. Occasionally, compounds at high concentrations will non-specifically increase binding. Ki values were determined only for compounds with % inhibition>50%.

Setting [4] is: Table 8, Homologues Type II (Aminopropane Derivatives), — = No significant inhibition.
Setting [5] is: Table 8, Homologues Type II (Aminopropane Derivatives).
Where [6] appears, read: Table 5, determined only for % inhibition >50%.
The mark [7] stands for this setting: Table 7, Homologues Type I (Aminoethane Derivatives), — = No significant inhibition.
The mark [8] stands for this setting: Table 7, Homologues Type I (Aminoethane Derivatives).

A value given as a limit tells only on which side of the number the result lay.

human serotonin transporter (SERT), sequence (P31645 whole entry): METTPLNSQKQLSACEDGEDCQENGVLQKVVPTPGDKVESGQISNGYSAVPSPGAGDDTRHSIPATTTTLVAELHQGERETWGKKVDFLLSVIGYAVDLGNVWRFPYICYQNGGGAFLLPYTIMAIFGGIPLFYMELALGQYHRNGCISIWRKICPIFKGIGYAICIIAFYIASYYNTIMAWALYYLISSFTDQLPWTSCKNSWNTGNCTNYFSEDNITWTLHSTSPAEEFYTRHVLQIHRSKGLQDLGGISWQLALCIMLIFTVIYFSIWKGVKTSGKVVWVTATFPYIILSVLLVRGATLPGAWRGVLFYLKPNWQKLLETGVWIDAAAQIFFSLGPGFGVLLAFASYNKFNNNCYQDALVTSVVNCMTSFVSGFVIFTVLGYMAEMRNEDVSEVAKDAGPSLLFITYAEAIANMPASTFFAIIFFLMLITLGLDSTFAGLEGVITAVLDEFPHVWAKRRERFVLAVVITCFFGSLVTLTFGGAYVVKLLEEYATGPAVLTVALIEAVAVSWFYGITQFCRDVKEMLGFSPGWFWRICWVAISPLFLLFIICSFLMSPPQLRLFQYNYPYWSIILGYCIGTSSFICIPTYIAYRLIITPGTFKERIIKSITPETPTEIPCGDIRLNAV
serotonin receptor 5-HT2A, sequence (P28223 whole entry): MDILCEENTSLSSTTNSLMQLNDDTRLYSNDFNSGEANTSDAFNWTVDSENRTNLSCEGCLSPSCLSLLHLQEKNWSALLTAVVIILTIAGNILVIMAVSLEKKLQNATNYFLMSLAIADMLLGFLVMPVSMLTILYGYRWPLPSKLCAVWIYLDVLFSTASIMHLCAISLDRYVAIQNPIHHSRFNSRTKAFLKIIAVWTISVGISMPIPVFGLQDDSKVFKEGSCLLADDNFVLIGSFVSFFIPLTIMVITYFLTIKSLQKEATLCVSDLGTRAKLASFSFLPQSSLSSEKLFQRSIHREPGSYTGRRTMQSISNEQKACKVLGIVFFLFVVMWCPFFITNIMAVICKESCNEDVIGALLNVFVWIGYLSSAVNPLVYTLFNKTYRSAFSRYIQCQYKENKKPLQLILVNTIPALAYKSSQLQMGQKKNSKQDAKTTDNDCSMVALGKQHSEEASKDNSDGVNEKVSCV

Take `FC(F)(F)c1ccc(OC(CCN2CCN(c3ccccc3)CC2)c2ccccc2)cc1` (single isomer, unassigned) [Compound 17b]: the Ki in series [1] (setting [4]) worked out at 605 nM; in series [2] (setting [5]) it was 315 nM; in series [3] (setting [5]), 761 nM.
Compound `Fc1ccc(OC(CN2CCN(c3ccccc3)CC2)c2ccccc2)cc1` (stereo not drawn) [Compound 1] displayed a melting point of 80 to 82 °C. For the same compound, the “mean % inhibition 5-HT2A” value in series [1] was 61.0%. For the same compound, the Ki in series [1] (setting [6]) came to 3490 nM. Also, the “mean % inhibition 5-HT1A” value in series [2] is recorded as 98.0%. This compound also yielded a Ki in series [2] (setting [6]) of 258 nM. Also, the “mean % inhibition SERT” value in series [3] was 12.0%.
With `Fc1ccc(OC(CN2CCN(c3ccccc3)CC2)c2ccccc2)cc1` (stereo not drawn) [Compound 1b], the values for the Ki in series [1] (setting [7]), in series [2] (setting [7]) and in series [3] (setting [8]) were 1120 nM, 99 nM and greater than 10000 nM, respectively. Also, the “dual activity towards the 5-HT2A receptor and the SERT” value in the series on 5HT1A, 5HT2A, SERT is “desired dual activity towards the 5-HT2A receptor and the SERT, although low”. Besides, the “affinity for SERT” value in series [3] is listed as “low affinity”.
Turning to `FC(F)(F)c1ccc(OC(CCN2CCN(c3ccccc3)CC2)c2ccccc2)cc1` (stereo not drawn) [Compound 2b], the “mean % inhibition 5-HT2A” value in series [1] was determined as 81.0%. The Ki turned out to be 195 nM in series [1] (setting [6]), 716 nM in series [2] (setting [6]) and 1870 nM in series [3] (setting [6]). Also, the “mean % inhibition 5-HT1A” value in series [2] is on record as 91.0%. For the same compound, the “dual activity towards the 5-HT2A receptor and the SERT” value in the series on 5HT1A, 5HT2A, SERT was “desired dual activity towards the 5-HT2A receptor and the SERT, although low”. Further, the “mean % inhibition SERT” value in series [3] came to 67.0%. Moreover, the “affinity for SERT” value in series [3] was “low affinity”.
Regarding `FC(F)(F)c1ccc(OC(CN2CCN(c3ccccc3)CC2)c2ccccc2)cc1` (stereo not drawn) [Compound 2b], the inhibition constant (Ki) in series [2] (setting [7]) is 392 nM; in series [3] (setting [8]), greater than 10000 nM.
Consider `FC(F)(F)c1ccc(OC(CN2CCN(c3cccc(Cl)c3)CC2)c2ccccc2)cc1` (stereo not drawn) [Compound 3], for which the “mean % inhibition 5-HT2A” value in series [1] is 17.0%. For the same compound, the “mean % inhibition 5-HT1A” value in series [2] amounted to 71.0%. Also, in series [2] (setting [6]), the Ki was determined as 712 nM. Also, the “mean % inhibition SERT” value in series [3] is 22.0%.
With `FC(F)(F)c1ccc(OC(CN2CCN(c3cccc(Cl)c3)CC2)c2ccccc2)cc1` (stereo not drawn) [Compound 3b], the inhibition constant Ki is 649 nM in series [2] (setting [7]) and 4930 nM in series [3] (setting [8]).
Turning to `FC(F)(F)c1ccc(OC(CN2CCN(c3cccc(C(F)(F)F)c3)CC2)c2ccccc2)cc1` (stereo not drawn) [Compound 4b], the Ki was found to be 1460 nM in series [2] (setting [7]) and 4510 nM in series [3] (setting [8]).
For the compound `COc1ccccc1N1CCN(CC(Oc2ccc(C(F)(F)F)cc2)c2ccccc2)CC1` (stereo not drawn) [Compound 5b], the Ki was greater than 10000 nM in series [1] (setting [7]), 22 nM in series [2] (setting [7]) and no less than 10000 nM in series [3] (setting [8]).
Turning to `CN1CCN(CC(Oc2ccc(C(F)(F)F)cc2)c2ccccc2)CC1` (stereo not drawn) [Compound 9b], the Ki in series [1] (setting [7]) came out at 405 nM; in series [3] (setting [8]), 3660 nM.
For the compound `Fc1ccc2c(C3CCN(CC(Oc4ccc(C(F)(F)F)cc4)c4ccccc4)CC3)noc2c1` (stereo not drawn) [Compound 13b], the Ki in series [1] (setting [7]) is greater than 10000 nM; in series [2] (setting [7]), 1970 nM; in series [3] (setting [8]), 1650 nM.
The matching figures for `O=C(CCCN1CCN(CC(Oc2ccc(F)cc2)c2ccccc2)CC1)c1ccc(F)cc1` (stereo not drawn) [Compound 14b]: no less than 10000 nM, 1180 nM and 1120 nM.
With `O=C(CCCN1CCN(CC(Oc2ccc(C(F)(F)F)cc2)c2ccccc2)CC1)c1ccc(F)cc1` (stereo not drawn) [Compound 15b], the Ki worked out at 157 nM in series [1] (setting [7]), 2730 nM in series [2] (setting [7]) and 1380 nM in series [3] (setting [8]).
In the case of `Fc1ccc(OC(CCN2CCN(c3ccccc3)CC2)c2ccccc2)cc1` (stereo not drawn) [Compound 16b], the “mean % inhibition 5-HT2A” value in series [1] turned out to be 96.0%. Also, the Ki came out at 76 nM in series [1] (setting [4]), 9 nM in series [2] (setting [5]) and 1130 nM in series [3] (setting [5]). The “mean % inhibition 5-HT1A” value in series [2] stood at 100.0%. Also, the “mean % inhibition SERT” value in series [3] was found to be 62.0%.
As for `Fc1ccc(OC(CCN2CCN(c3cccc(Cl)c3)CC2)c2ccccc2)cc1` (stereo not drawn) [Compound 18b], the figures for the Ki in series [1] (setting [4]), in series [2] (setting [5]) and in series [3] (setting [5]) were 94 nM, 11 nM and 289 nM, respectively.
For `FC(F)(F)c1ccc(OC(CCN2CCN(c3cccc(Cl)c3)CC2)c2ccccc2)cc1` (stereo not drawn) [Compound 19b], the Ki stood at 1340 nM in series [1] (setting [4]), 311 nM in series [2] (setting [5]) and 357 nM in series [3] (setting [5]).
For `Fc1ccc(OC(CCN2CCN(c3cccc(C(F)(F)F)c3)CC2)c2ccccc2)cc1` (stereo not drawn) [Compound 20b] the same measures were 747 nM, 20 nM and 330 nM.
`FC(F)(F)c1ccc(OC(CCN2CCN(c3cccc(C(F)(F)F)c3)CC2)c2ccccc2)cc1` (stereo not drawn) [Compound 21b]: the Ki in series [2] (setting [5]) came to 193 nM; in series [3] (setting [5]), 1330 nM.
For `COc1ccccc1N1CCN(CCC(Oc2ccc(F)cc2)c2ccccc2)CC1` (stereo not drawn) [Compound 22b], the Ki came to 761 nM in series [1] (setting [4]), 4 nM in series [2] (setting [5]) and 2440 nM in series [3] (setting [5]).
For `COc1ccccc1N1CCN(CCC(Oc2ccc(C(F)(F)F)cc2)c2ccccc2)CC1` (stereo not drawn) [Compound 23b] the same measures were 1420 nM, 42.1 nM and 2200 nM.
The matching figures for `Fc1ccc(OC(CCN2CCN(c3ncccn3)CC2)c2ccccc2)cc1` (stereo not drawn) [Compound 24b]: 853 nM, 803 nM and no less than 10000 nM.
For `FC(F)(F)c1ccc(OC(CCN2CCN(c3ncccn3)CC2)c2ccccc2)cc1` (stereo not drawn) [Compound 25b], the Ki in series [1] (setting [4]) was 1790 nM; in series [2] (setting [5]), 434 nM; in series [3] (setting [5]), 6820 nM.
On to `CN1CCN(CCC(Oc2ccc(F)cc2)c2ccccc2)CC1` (stereo not drawn) [Compound 26b], for which the Ki in series [1] (setting [4]) is 1330 nM; in series [2] (setting [5]), greater than 10000 nM; in series [3] (setting [5]) it was 2900 nM.
The matching figures for `CN1CCN(CCC(Oc2ccc(C(F)(F)F)cc2)c2ccccc2)CC1` (stereo not drawn) [Compound 27b]: 1740 nM, 9560 nM and 7010 nM.
For `O=C(c1ccc(F)cc1)C1CCN(CCC(Oc2ccc(F)cc2)c2ccccc2)CC1` (stereo not drawn) [Compound 28b] the same measures were 69.6 nM, 234 nM and 6480 nM.
For `O=C(c1ccc(F)cc1)C1CCN(CCC(Oc2ccc(C(F)(F)F)cc2)c2ccccc2)CC1` (stereo not drawn) [Compound 29b] the same measures were 73.7 nM, 304 nM and 1240 nM.
Take `Fc1ccc(OC(CCN2CCC(c3noc4cc(F)ccc34)CC2)c2ccccc2)cc1` (stereo not drawn) [Compound 30b]: the inhibition constant Ki came to 398 nM in series [1] (setting [4]), 8.6 nM in series [2] (setting [5]) and 1690 nM in series [3] (setting [5]).
Take `Fc1ccc2c(C3CCN(CCC(Oc4ccc(C(F)(F)F)cc4)c4ccccc4)CC3)noc2c1` (stereo not drawn) [Compound 31b]: the inhibition constant (Ki) in series [1] (setting [4]) was 23.2 nM; in series [2] (setting [5]), 420 nM; in series [3] (setting [5]), 718 nM.
For `O=C(CCCN1CCN(CCC(Oc2ccc(F)cc2)c2ccccc2)CC1)c1ccc(F)cc1` (stereo not drawn) [Compound 32b] the same measures were 420 nM, 2640 nM and 1350 nM.
The matching figures for `O=C(CCCN1CCN(CCC(Oc2ccc(C(F)(F)F)cc2)c2ccccc2)CC1)c1ccc(F)cc1` (stereo not drawn) [Compound 33b]: 406 nM, 5010 nM and 725 nM.

The Ki is a measure of affinity in units of concentration, obtained from inhibition or displacement. By melting point is commonly meant the temperature, or range, at which the solid turns liquid.
